According to patent publication US6358995B1, “Carboxylic acid derivatives having fused rings” (Eisai Co., Ltd., priority 1996, dated 2002):

Columns and labels:
Assay in all cases: Transcription accelerating activity through RARs (PLAP reporter in COS-1 cells)
Assay type in all cases: cell-based
Conditions in all cases: relative to ED30 of all-trans retinoic acid = 1, ED30 = concentration giving 30% of activity induced by 1 μM all-trans retinoic acid
RAR-β = molecular target: T1, RAR-β (Homo sapiens, UniProt P10826)
T1 construct: expressed in transfected cells; host or cells: COS-1 (African green monkey kidney cells), transient lipofection
T1 sequence (P10826 1-455): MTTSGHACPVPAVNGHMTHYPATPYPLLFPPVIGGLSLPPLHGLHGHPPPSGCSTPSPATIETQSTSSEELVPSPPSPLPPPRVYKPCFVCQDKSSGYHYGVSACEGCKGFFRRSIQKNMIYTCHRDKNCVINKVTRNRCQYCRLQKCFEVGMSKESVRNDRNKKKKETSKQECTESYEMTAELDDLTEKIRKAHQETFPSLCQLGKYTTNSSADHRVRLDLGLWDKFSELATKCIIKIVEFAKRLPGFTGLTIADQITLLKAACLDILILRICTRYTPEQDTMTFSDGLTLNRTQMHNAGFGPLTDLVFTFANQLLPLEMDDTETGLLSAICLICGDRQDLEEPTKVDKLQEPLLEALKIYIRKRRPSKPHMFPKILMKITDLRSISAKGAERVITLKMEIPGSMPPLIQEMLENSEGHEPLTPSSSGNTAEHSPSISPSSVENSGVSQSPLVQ
Description: (§1) Measurement of the Activities of Accelerating Trans-cription Through RARs
(§2) Human RAR Expression Vectors and secretory alkaline phosphatase (PLAP) gene vectors (PLAP vectors) containing in a state integrated into the upstream a competent sequence whose expression is […] through binding with RAR depending on a ligand were temporarily transferred into COS-1 (African green monkey kidney cells), and the PLAP which had been produced depending on a ligand and secreted into a culture medium was analyzed by the chemiluminescence method to determine the transcription-accelerating activity of each compound. Further, the selectivity of each compound among RARs was determined by comparing the transcription accelerating activities of the compound for the receptors with each other.
(§3) On a 60-mm culture dish were scattered 2.5×10^4 COS-1 cells. Four days after, human RAR α, β and γ expression vectors and PLAP vectors were transferred into the cells each in an amount of 4 μg by the lipofection method. Another day after, the resulting cells were recovered, and put on a 96-well culture plate in an amount of 2×10^4 per unit well. Four hours after, the cells were put on a medium containing charcoal-treated fetal bovine serum, followed by the addition of a dilution of all-trans retinoic acid or a test compound. After the lapse of 36 hours, the supernatant was recovered and the resulting samples were treated at 65° C. for 10 minutes to eliminate the non-specific activity. 15 μl of each sample was mixed with 60 μl of a 28 mM sodium carbonate buffer(pH10), followed by the addition of 75 μl of Smilight (trade name, a product of Sumitomo Metal Industries, Ltd., substrate for chemiluminescence). The resulting mixture was reacted at 37° C. for 30 minutes and the intensity of luminescence was determined. The compounds which will be described below induced the transcription activities of RARs dependently on the concentration.

RAR-α = molecular target: T2, RAR-α (Homo sapiens, UniProt P10276)
T2 construct: expressed in transfected cells; host or cells: COS-1 (African green monkey kidney cells), transient lipofection
T2 sequence (P10276 1-462): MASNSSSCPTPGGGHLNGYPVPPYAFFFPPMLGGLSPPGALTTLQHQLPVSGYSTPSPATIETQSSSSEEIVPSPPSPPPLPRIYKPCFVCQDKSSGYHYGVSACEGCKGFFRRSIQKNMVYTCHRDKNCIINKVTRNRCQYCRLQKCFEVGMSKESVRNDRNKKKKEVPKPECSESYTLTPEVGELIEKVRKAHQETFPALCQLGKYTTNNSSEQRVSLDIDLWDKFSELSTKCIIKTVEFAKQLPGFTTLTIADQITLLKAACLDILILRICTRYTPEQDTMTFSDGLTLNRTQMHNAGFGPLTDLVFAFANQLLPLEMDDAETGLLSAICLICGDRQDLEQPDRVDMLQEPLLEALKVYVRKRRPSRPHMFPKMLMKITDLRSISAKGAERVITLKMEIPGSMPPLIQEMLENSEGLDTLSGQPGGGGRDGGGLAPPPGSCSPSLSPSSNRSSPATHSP
Description: as §1, §2, §3

RAR-γ = molecular target: T3, RAR-γ (Homo sapiens, UniProt P13631)
T3 construct: expressed in transfected cells; host or cells: COS-1 (African green monkey kidney cells), transient lipofection
T3 sequence (P13631 1-454): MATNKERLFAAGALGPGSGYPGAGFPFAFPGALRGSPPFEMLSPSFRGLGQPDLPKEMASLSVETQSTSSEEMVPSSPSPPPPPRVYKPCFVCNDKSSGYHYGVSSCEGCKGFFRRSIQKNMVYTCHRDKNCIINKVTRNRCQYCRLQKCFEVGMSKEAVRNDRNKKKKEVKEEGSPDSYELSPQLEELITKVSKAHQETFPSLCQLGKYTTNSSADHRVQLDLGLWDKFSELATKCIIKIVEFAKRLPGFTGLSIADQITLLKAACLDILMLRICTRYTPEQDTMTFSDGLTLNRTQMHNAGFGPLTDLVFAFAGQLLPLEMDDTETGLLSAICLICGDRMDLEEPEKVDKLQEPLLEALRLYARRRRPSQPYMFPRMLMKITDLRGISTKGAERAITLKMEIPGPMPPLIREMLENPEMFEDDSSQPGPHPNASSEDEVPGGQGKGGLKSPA
Description: as §1, §2, §3

Compound | Transcription accelerating activity Relative ED30 RAR-β (RAR-β) | Transcription accelerating activity Relative ED30 RAR-α (RAR-α) | Transcription accelerating activity Relative ED30 RAR-γ (RAR-γ)
Cc1ccc(C)c2c(C)c(-c3ccc(-c4ccc(C(=O)O)cc4)[nH]3)oc12 [Example 47, 4-{2-[5-(3,4,7-Trimethylbenzofuran-2-yl)pyrrolyl]}benzoic acid] | 2.4 | 0.80 | 41
Cc1c(-c2ccc(-c3ccc(C(=O)O)cc3)[nH]2)oc2c(Cl)ccc(Cl)c12 [Example 46, 4-{2-[5-(4,7-Dichloro-3-methylbenzofuran-2-yl)pyrrolyl]}benzoic acid] | 14 | 0.63 | 240
Cc1ccc(C)c2sc(-c3ccc(-c4ccc(C(=O)O)cc4)[nH]3)cc12 [Example 77, 4-{2-[5-(4,7-Dimethylbenzothiophen-2-yl)pyrrolyl]}benzoic acid] | 65 | 0.35 | 130
Cc1ccc(C)c2oc(-c3ccc(-c4ccc(C(=O)O)cc4)[nH]3)cc12 [Example 13, 4-{2-[5-(4,7-Dimethylbenzofuran-2-yl)pyrrolyl]}benzoic acid] | 13 | 0.4 | 48
Cc1ccc(C)c2c1C=C(c1ccc(-c3ccc(C(=O)O)cc3)[nH]1)CO2 [Example 127, 4-{2-[5-(5,8-Dimethyl-2H-chromen-3-yl)pyrrolyl]}benzoic acid] | 240 | 1.8 | 3600
Cc1ccc(Cl)c2sc(-c3ccc(-c4ccc(C(=O)O)cc4)[nH]3)cc12 [Example 75, 4-{2-[5-(7-Chloro-4-methylbenzothiophen-2-yl)pyrrolyl]}benzoic acid] | 150 | 0.80 | 2000
CCc1ccc(OC)c2ccc(-c3ccc(-c4ccc(C(=O)O)cc4)[nH]3)cc12 [Example 90, 4-{2-[5-(5-Methoxy-8-ethylnaphthalen-2-yl)pyrrolyl]}benzoic acid] | 450 | 3.1 | 1400
CC1=CCOc2ccc(-c3ccc(-c4ccc(C(=O)O)cc4)[nH]3)cc21 [Example 133, 4-{2-[5-(4-Methyl-2H-chromen-6-yl)pyrrolyl]}benzoic acid] | 250 | 3.2 | 780

The remaining lines, values ahead:

Transcription accelerating activity Relative ED30 RAR-β (RAR-β) | Transcription accelerating activity Relative ED30 RAR-α (RAR-α) | Transcription accelerating activity Relative ED30 RAR-γ (RAR-γ) | Compound
67 | 0.40 | 330 | CCc1cc(Cl)cc2cc(-c3ccc(-c4ccc(C(=O)O)cc4)[nH]3)oc12 [Example 23, 4-{2-[5-(5-Chloro-7-ethylbenzofuran-2-yl)pyrrolyl]}benzoic acid]
91 | 0.33 | 790 | O=C(O)c1ccc(-c2ccc(-c3cc4c(F)ccc(Cl)c4o3)[nH]2)cc1 [Example 42, 4-{2-[5-(4-Fluoro-7-chlorobenzofuran-2-yl)pyrrolyl]}benzoic acid]
940 | 3.1 | 2100 | O=C(O)c1ccc(-c2ccc(-c3cc4cccc(Cl)c4o3)[nH]2)cc1 [Example 15, 4-{2-[5-(7-Chlorobenzofuran-2-yl)pyrrolyl]}benzoic acid]
24 | 0.26 | 120 | CCc1ccc(C)c2cc(-c3ccc(-c4ccc(C(=O)O)cc4)[nH]3)oc12 [Example 17, 4-{2-[5-(4-Methyl-7-ethylbenzofuran-2-yl)pyrrolyl]}benzoic acid]
24 | 0.80 | 150 | Cc1cc(C)c2cc(-c3ccc(-c4ccc(C(=O)O)cc4)[nH]3)oc2c1C [Example 113, 4-{2-[5-(4,6,7-Trimethylbenzofuran-2-yl)pyrrolyl]}benzoic acid]
36 | 0.9 | 190 | CCc1cccc2ccc(-c3ccc(-c4ccc(C(=O)O)cc4)[nH]3)cc12 [Example 7, 4-{2-[5-(8-Ethylnaphthalen-2-yl)pyrrolyl]}benzoic acid]
74 | 1.0 | 410 | CCCc1cccc2cc(-c3ccc(-c4ccc(C(=O)O)cc4)[nH]3)oc12 [Example 16, 4-{2-[5-(7-n-Propylbenzofuran-2-yl)pyrrolyl]}benzoic acid]
31 | 0.20 | 120 | CCc1cccc2cc(-c3ccc(-c4ccc(C(=O)O)cc4)[nH]3)oc12 [Example 55, 4-{2-[5-(7-Ethylbenzofurn-2-yl)pyrrolyl]}benzoic acid]
110 | 0.72 | 750 | O=C(O)c1ccc(-c2ccc(-c3cc4c(Cl)cccc4o3)[nH]2)cc1 [Example 60, 4-{2-[5-(4-Chlorobenzofuran-2-yl)pyrrolyl]}benzoic acid]
26 | 0.17 | 430 | Cc1ccc(Cl)c2oc(-c3ccc(-c4ccc(C(=O)O)cc4)[nH]3)cc12 [Example 53, 4-{2-[5-(7-Chloro-4-methylbenzofuran-2-yl)pyrrolyl]}benzoic acid]
62 | 0.65 | 63 | CCc1cc(F)cc2cc(-c3ccc(-c4ccc(C(=O)O)cc4)[nH]3)oc12 [Example 25, 4-{2-[5-(5-Fluoro-7-ethylbenzofuran-2-yl)pyrrolyl]}benzoic acid]
210 | 0.47 | 790 | Cc1ccc(F)c2cc(-c3ccc(-c4ccc(C(=O)O)cc4)[nH]3)oc12 [Example 110, 4-{2-[5-(4-Fluoro-7-methylbenzofuran-2-yl)pyrrolyl]}benzoic acid]
